pIC50, pKi: −log10 of the molar value.
Key:
HT-29 = test: Cytotoxicity against human HT-29 cells after 24 hrs by MTT assay; assay type: functional, cell-based; conditions: HT-29, 24 h
[1] = molecular target: T1, Serine/threonine-protein kinase pim-1 (Homo sapiens, UniProt P11309); test: Inhibition of PIM1 (unknown origin)
[2] = Cytotoxicity against human […] cells after 24 hrs by MTT assay; assay type: functional, cell-based
MCF7 = test: Cytotoxicity against human MCF7 cells after 24 hrs by MTT assay; assay type: functional, cell-based; conditions: MCF7, 24 h
Homo sapiens [3] = organism: Homo sapiens; test: Selectivity ratio of IC50 for PI3kdelta (unknown origin) to Ki for PIM1 (unknown origin)
Homo sapiens [4] = organism: Homo sapiens; test: Selectivity ratio of IC50 for PI3kalpha (unknown origin) to Ki for PIM1 (unknown origin)
Homo sapiens [5] = organism: Homo sapiens; test: Selectivity ratio of IC50 for PI3kgamma (unknown origin) to Ki for PIM1 (unknown origin)
[6] = molecular target: T1, Serine/threonine-protein kinase pim-1; test: Inhibition of N-terminal GST-tagged recombinant human full length Pim-1 expressed in Escherichia coli cells

T1 sequence (P11309 whole entry): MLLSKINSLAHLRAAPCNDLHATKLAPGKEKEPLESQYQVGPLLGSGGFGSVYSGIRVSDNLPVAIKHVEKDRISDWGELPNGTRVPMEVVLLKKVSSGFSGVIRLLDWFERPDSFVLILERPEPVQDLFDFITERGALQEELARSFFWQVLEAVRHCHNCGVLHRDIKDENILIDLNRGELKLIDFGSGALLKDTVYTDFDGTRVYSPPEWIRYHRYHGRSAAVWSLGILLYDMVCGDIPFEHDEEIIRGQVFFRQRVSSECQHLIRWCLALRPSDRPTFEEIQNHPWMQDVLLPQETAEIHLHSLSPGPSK

With `CSc1ncc(-c2cc(-c3ccc(Br)cc3)[nH]c(=O)c2C#N)n1Cc1ccccc1` the pIC50 (HT-29) was < 3.89 and the pIC50 [1] was > 6.82.

For `CSc1ncc(-c2cc(-c3ccc4c(c3)OCO4)[nH]c(=O)c2C#N)n1Cc1ccccc1`, the pIC50 (HT-29) was < 3.89.

For `CSc1ncc(-c2cc(-c3ccc(Br)cc3)[nH]c(=N)c2C#N)n1Cc1ccccc1`, the pIC50 (HT-29) was < 3.89 and the pIC50 [1] was > 6.82.

In the case of `CSc1ncc(-c2cc(-c3ccc4c(c3)OCO4)[nH]c(=N)c2C#N)n1Cc1ccccc1`, the pIC50 (HT-29) was < 3.89.

With `COc1cc(C2NC(=O)c3sc4nc(C)c(Br)c(C)c4c3N2)ccc1O` (centres undefined) the pIC50 [2] was 5.75 to 7.22 and the pIC50 (MCF7) was 5.75 to 7.22.

With `CC(C)(O)[C@H]1CC[C@H](Nc2ccc3ncc(-c4cccc(C(F)(F)F)c4)n3n2)CC1` the Ratio (Homo sapiens [3]) was 10, the Ratio (Homo sapiens [4]) was 10 and the Ratio (Homo sapiens [5]) was 10.

Compound `O=C1NC(=O)/C(=C/c2ccnc(N3CCC(CNCc4ccc5ccccc5n4)CC3)n2)S1` has a pKi [6] of 8.11.

For `Cc1nc2sc3c(c2c(C)c1Br)NC(c1ccc(O)c(O)c1)NC3=O` (centres undefined), the pIC50 [2] was 5.75 to 7.22 and the pIC50 (MCF7) was 5.75 to 7.22.

— ChEMBL document CHEMBL4346696, “PIM kinase inhibitors: Structural and pharmacological perspectives” (Eur J Med Chem, 2019)
